We go through 17 molecules from PubChem BioAssay (NCI).

Usually TGI stands for the concentration at which net growth stops. Low values mean greater sensitivity of the cells, high ones lower sensitivity of the cells.

Holding throughout (assay): DTP human tumour cell line panel, 48 h
The test system of test [1] is A549 NSCLC.
The subject of test [2] is LOX IMVI melanoma.
The test system of test [3] is MALME-3M melanoma.
Test [4] concerns NCI-H522 lung.
The test system of test [5] is SK-MEL-28 melanoma.
Test [6] deals with SK-MEL-5 melanoma.
Test [7] has as its system SN12C renal.
Test [8] has as its system SR leukemia.

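In this assay, cells in 96-well plates receive the compound at five concentrations for 48 hours. Endpoints are linearly interpolated between the surrounding concentrations. Definition used: TGI = concentration required for complete inhibition of growth.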

Regarding `CCOC(=O)CNC1C(NC(C)=O)C(OC)OC2COC(c3ccccc3)OC21` (stereo not given), the concentration for total growth inhibition (TGI) in test [1], in test [2], in test [3], in test [4], in test [5] and in test [6] was above 100 µM each time. The TGI in test [7] was above 100 µM.
`CC1=C(/C=C/C2=CC(=C\C(=O)O)/CC(C3=C(C)CCCC3(C)C)C2)C(C)(C)CCC1` (stereo not given): the TGI in test [1] was found to be 19.6 µM; in test [2], 27.6 µM; in test [3], 34.1 µM; in test [4], 22.7 µM; in test [5], 29.5 µM; in test [6] it was 28 µM. Besides, the TGI amounted to 32.3 µM in test [7] and 24.2 µM in test [8].
As to `CC(=O)O[C@H]1CCC2[C@@H]3CCC4Nc5c(cnn5-c5ccccc5)C[C@]4(C)C3CC[C@@]21C` (stereo not given in full), the TGI in test [1] was determined as 68.7 µM; in test [2], 25.4 µM; in test [3], 35.1 µM; in test [4] it was 29.7 µM; in test [6] it was 22 µM; in test [7], 41.4 µM.
For the molecule `CCCCCCCC(=O)OCC1OC(n2cc(F)c(=O)[nH]c2=O)C(NC(=O)OCc2ccccc2)C(OC(=O)CCCCCCC)C1O` (stereo not given), the TGI in test [1] is above 100 µM; in test [2], 29.7 µM; in test [3] it was 44.2 µM; in test [4] it was 72 µM; in test [5], above 100 µM; in test [6] it was 11.1 µM. Moreover, the concentration for total growth inhibition (TGI) amounted to 27.4 µM in test [7] and 64 µM in test [8].
In the case of `CCOC(=O)/C(C#N)=C\C=C1/C=CNC2=NCCN21`, the TGI in test [1], in test [2], in test [3], in test [4], in test [5] and in test [6] was above 100 µM in each case. Moreover, the TGI in test [7] and in test [8] was above 100 µM throughout.
For `CCC(O)(c1ccc(OC)cc1)C(c1ccc(OCc2ccccc2)cc1)c1ccc(OCc2ccccc2)cc1` (stereo not given), the TGI in test [1], in test [2], in test [3], in test [4], in test [5] and in test [6] was above 100 µM in each case. Also, the concentration for total growth inhibition (TGI) in test [7] and in test [8] was above 100 µM throughout.
On to `O=C1NC(=O)C(=O)C(c2nc3ccccc3s2)C1=O`, for which the TGI in test [1], in test [3], in test [4], in test [5], in test [6] and in test [7] was above 100 µM each time. Further, in test [8], the TGI was above 100 µM.
Take `O=C(c1cc2c(C(F)(F)F)onc2c2ccccc12)C(F)(F)F`: the total growth inhibition concentration (TGI) in test [1] was above 72.1 µM; in test [2], 18.3 µM; in test [4] it was 6.25 µM; in test [5], above 75.1 µM; in test [6] it was 15.5 µM; in test [7], 7.85 µM. This molecule also returned a TGI in test [8] above 100 µM.
For the molecule `Cc1ccc(NC(=O)CC/C(CC(=O)c2ccc(Cl)cc2)=N\NC(=O)C(=O)NN)cc1C`, the TGI in test [1], in test [2], in test [3], in test [4], in test [5] and in test [6] was above 100 µM in each case. Also, the TGI in test [7] and in test [8] was above 100 µM each time.
On to `N#CC(C(=O)CCC(=O)Nc1ccc(Cl)cc1)c1ccccc1Cl` (stereo not given), for which the TGI in test [1], in test [3], in test [4], in test [5], in test [6] and in test [7] was above 100 µM each time.
With `CC(C)c1cccc(C(C)C)c1N=C(N)C#N`, the concentration for total growth inhibition (TGI) in test [1] is above 61.1 µM; in test [2], above 56.2 µM; in test [3], above 100 µM; in test [4] it was above 100 µM; in test [5] it was above 100 µM; in test [6], above 100 µM. Also, the total growth inhibition concentration (TGI) is above 100 µM in test [7] and above 90 µM in test [8].
With `C[Si](C)(C)/C=C\CCCN1C(=O)CCC1=O`, the concentration for total growth inhibition (TGI) in test [1], in test [2], in test [3], in test [4], in test [5] and in test [6] was above 100 µM each time. Further, the TGI in test [7] and in test [8] was above 100 µM each time.
In the case of `CC([C@H]1CCC2C3CCC4CC5(CC[C@]4(C)C3CC[C@@]21C)c1ccccc1C(=O)N5C)N(C)C` (stereo not given in full), the total growth inhibition concentration (TGI) is above 100 µM in test [1]; 4.21 µM in test [2]; 42.5 µM in test [3]; above 100 µM in test [4]; 35 µM in test [5]; 42.9 µM in test [6]. For the same molecule, the total growth inhibition concentration (TGI) was above 100 µM in test [7] and 74.7 µM in test [8].
`NNC(=O)CCC(=O)Nc1ccc(Cl)cc1Cl`: the TGI in test [1], in test [2], in test [3], in test [4], in test [5] and in test [6] was above 100 µM throughout. Further, the concentration for total growth inhibition (TGI) in test [7] and in test [8] was above 100 µM in each case.
As to `CCN(CC)C(=O)CNC(=O)OC(C)(C)C`, the total growth inhibition concentration (TGI) in test [1], in test [2], in test [3], in test [4], in test [5] and in test [6] was above 100 µM each time. The TGI in test [7] is above 100 µM.
Take `O=C(COc1ccc(Cl)cc1)N1N=C(c2ccc([N+](=O)[O-])o2)CC1(O)c1ccccc1` (stereo not given): the TGI amounted to 28.8 µM in test [1]; 23.8 µM in test [2]; 23.4 µM in test [3]; 38.6 µM in test [4]; 25.1 µM in test [5]; 15.8 µM in test [7]. Also, the TGI in test [8] worked out at 23.8 µM.
Turning to `O=C(O)CN(c1ccccc1)S(=O)(=O)c1ccc(Cl)cc1`, the TGI in test [1], in test [2], in test [3], in test [4], in test [5] and in test [7] was above 100 µM in each case.
